Results reported in US8754242B2, “Herbicides” (Syngenta Crop Protection LLC, priority 2007, dated 2014).

Tests used:
Format in all cases: in vivo
[1] = test system: Alopecurus myosuroides (ALOMY); assay: Test Example 1 post-emergence herbicidal activity; settings: 360 h, rate 125 g/ha, evaluated 15 days later, read-out: Post-emergence activity ALOMY (100=total damage to plant; 0=no damage to plant)
Summary of the method: (§1)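 Greenhouse pot test; spray application pre-emergence (1 d after sowing) or post-emergence (10 d growth). Rating 0–100% damage; pre read at 20 d, post at 15 d.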

Avena fatua (AVEFA) [2] = assay: Test Example 1 post-emergence herbicidal activity; settings: 360 h, rate 125 g/ha, evaluated 15 days later, read-out: Post-emergence activity AVEFA (100=total damage to plant; 0=no damage to plant)
Summary of the method: as §1

[3] = test system: Echinochloa crus-galli (ECHCG); assay: Test Example 1 post-emergence herbicidal activity; settings: 360 h, rate 125 g/ha, evaluated 15 days later, read-out: Post-emergence activity ECHCG (100=total damage to plant; 0=no damage to plant)
Summary of the method: as §1

[4] = test system: Digitaria sanguinalis (DIGSA); assay: Test Example 1 post-emergence herbicidal activity; settings: 360 h, rate 125 g/ha, evaluated 15 days later, read-out: Post-emergence activity DIGSA (100=total damage to plant; 0=no damage to plant)
Summary of the method: as §1

Lolium perenne (LOLPE) [5] = assay: Test Example 1 post-emergence herbicidal activity; settings: 360 h, rate 125 g/ha, evaluated 15 days later, read-out: Post-emergence activity LOLPE (100=total damage to plant; 0=no damage to plant)
Summary of the method: as §1

Setaria faberi (SETFA) [6] = assay: Test Example 1 post-emergence herbicidal activity; settings: 360 h, rate 125 g/ha, evaluated 15 days later, read-out: Post-emergence activity SETFA (100=total damage to plant; 0=no damage to plant)
Summary of the method: as §1

[7] = test system: Alopecurus myosuroides (ALOMY); assay: Test Example 1 pre-emergence herbicidal activity; settings: Alopecurus myosuroides, 480 h, rate 250 g/ha, evaluated 20 days later, read-out: Pre-emergence activity ALOMY (100=total damage to plant; 0=no damage to plant)
Summary of the method: as §1

Avena fatua (AVEFA) [8] = assay: Test Example 1 pre-emergence herbicidal activity; settings: Avena fatua, 480 h, rate 250 g/ha, evaluated 20 days later, read-out: Pre-emergence activity AVEFA (100=total damage to plant; 0=no damage to plant)
Summary of the method: as §1

[9] = test system: Echinochloa crus-galli (ECHCG); assay: Test Example 1 pre-emergence herbicidal activity; settings: Echinochloa crus-galli, 480 h, rate 250 g/ha, evaluated 20 days later, read-out: Pre-emergence activity ECHCG (100=total damage to plant; 0=no damage to plant)
Summary of the method: as §1

[10] = test system: Digitaria sanguinalis (DIGSA); assay: Test Example 1 pre-emergence herbicidal activity; settings: Digitaria sanguinalis, 480 h, rate 250 g/ha, evaluated 20 days later, read-out: Pre-emergence activity DIGSA (100=total damage to plant; 0=no damage to plant)
Summary of the method: as §1

Lolium perenne (LOLPE) [11] = assay: Test Example 1 pre-emergence herbicidal activity; settings: Lolium perenne, 480 h, rate 250 g/ha, evaluated 20 days later, read-out: Pre-emergence activity LOLPE (100=total damage to plant; 0=no damage to plant)
Summary of the method: as §1

Setaria faberi (SETFA) [12] = assay: Test Example 1 pre-emergence herbicidal activity; settings: Setaria faberi, 480 h, rate 250 g/ha, evaluated 20 days later, read-out: Pre-emergence activity SETFA (100=total damage to plant; 0=no damage to plant)
Summary of the method: as §1

Row | Compound | pest or weed control at 125 g/ha [1] [%] | pest or weed control at 125 g/ha (Avena fatua (AVEFA) [2]) [%] | pest or weed control at 125 g/ha [3] [%] | pest or weed control at 125 g/ha [4] [%] | pest or weed control at 125 g/ha (Lolium perenne (LOLPE) [5]) [%] | pest or weed control at 125 g/ha (Setaria faberi (SETFA) [6]) [%] | pest or weed control at 250 g/ha [7] [%] | pest or weed control at 250 g/ha (Avena fatua (AVEFA) [8]) [%] | pest or weed control at 250 g/ha [9] [%] | pest or weed control at 250 g/ha [10] [%] | pest or weed control at 250 g/ha (Lolium perenne (LOLPE) [11]) [%] | pest or weed control at 250 g/ha (Setaria faberi (SETFA) [12]) [%]
1 | Cc1cc(C)c(C2=C(O)[C@H]3[C@@H](C2=O)[C@@H]2CC[C@@]3(CO)O2)c(C)c1 [Example T49] | 80 | 80 | 80 | 70 | 70 | 50 | 80 | 70 | 80 | 10 | 100 | 20
2 | CC[C@]12CC[C@H](O1)[C@@H]1C(=O)C(c3c(C)cc(C)cc3C)=C(O)[C@@H]12 [Example T52] | 60 | 70 | 100 | 80 | 70 | 80 | 40 | 30 | 100 | 90 | 100 | 90
3 | Cc1cc(C)c(C2=C(O)[C@@H]3[C@@H]4O[C@@H](C[C@H]4c4ccccc4)[C@@H]3C2=O)c(C)c1 [Example T56] | 100 | 50 | 100 | 70 | 80 | 60 | 100 | 60 | 100 | 70 | 100 | 70
4 | Cc1cc(C)c(C2=C(O)[C@H]3[C@@H](C2=O)[C@@H]2C=C(CO)[C@@]3(C)O2)c(C)c1 [Example T58] | 0 | 10 | 30 | 40 | 0 | 30 | 0 | 10 | 60 | 0 | 0 | 0
5 | CCC(=O)OC[C@]12C=C[C@H](O1)[C@@H]1C(=O)C(c3c(C)cc(C)cc3C)=C(O)[C@@H]12 [Example T59] | 50 | 40 | 80 | 80 | 0 | 70 | 10 | 20 | 30 | 50 | 30 | 40
6 | CC1=C2CCC(C)C[C@@]23O[C@@H]1C1C(=O)C(c2c(C)cc(C)cc2C)=C(O)C13 (stereo partly drawn) [Example T60] | 10 | 0 | 0 | 50 | 0 | 40 | 0 | 40 | 30 | 30 | 10 | 10
7 | Cc1cc(C)c(C2=C(O)C3C(C2=O)[C@@H]2CC(CO)[C@@]3(C)O2)c(C)c1 (stereo partly drawn) [Example T62] | 60 | 0 | 80 | 70 | 20 | 70 | 70 | 70 | 80 | 80 | 60 | 80
8 | Cc1cc(C)c(C2=C(O)[C@@H]3[C@@H]4O[C@@H](C[C@H]4C)[C@@H]3C2=O)c(C)c1 [Example T65] | 90 | 90 | 100 | 100 | 80 | 100 | 100 | 90 | 100 | 100 | 100 | 90
9 | CSc1ccc([C@@H]2C[C@@H]3O[C@H]2[C@H]2C(O)=C(c4c(C)cc(C)cc4C)C(=O)[C@H]23)cc1 [Example T66] | 80 | 80 | 80 | 90 | 50 | 80 | 30 | 60 | 70 | 90 | 40 | 100
10 | Cc1cc(C)c(C2=C(O)[C@@H]3[C@@H]4O[C@@H](C[C@H]4c4cccc(C(F)(F)F)c4)[C@@H]3C2=O)c(C)c1 [Example T85] | 90 | 20 | 100 | 20 | 70 | 70 | 40 | 60 | 70 | 60 | 70 | 70
11 | Cc1cc(C)c(C2=C(O)[C@@H]3[C@@H]4O[C@@H](C[C@H]4c4cccc(C#N)c4)[C@@H]3C2=O)c(C)c1 [Example T89] | 80 | 80 | 100 | 90 | 80 | 90 | 20 | 60 | 20 | 30 | 40 | 30
12 | Cc1cc(C)c(C2=C(O)[C@@H]3[C@@H]4O[C@@H](C[C@H]4c4ccc([N+](=O)[O-])cc4)[C@@H]3C2=O)c(C)c1 [Example T90] | 90 | 80 | 80 | 80 | 60 | 60 | 10 | 60 | 70 | 60 | 20 | 40
13 | Cc1cc(C)c(C2=C(O)[C@@H]3[C@@H]4O[C@@H](C[C@H]4c4ccc(OC(F)(F)F)cc4)[C@@H]3C2=O)c(C)c1 [Example T91] | 90 | 90 | 100 | 100 | 50 | 100 | 20 | 50 | 50 | 70 | 20 | 50
